Consider two molecules from ChEMBL document CHEMBL1126453, “Synthesis and anti-herpes activity of 5-trifluorovinyl-2-deoxyuridine” (1992).

Bounds are passed on as bounds.

A short description of assay [1]: Minimum antiviral concentration required to reduce virus-induced cytopathogenicity against HSV-1 (KOS) in E6SM cells. The class given is functional. On the technique in general: Damage to the host cells serves as the signal in cytopathic effect assays.
Assay [2] can be described thus: Minimum antiviral concentration required to reduce virus-induced cytopathogenicity against HSV-2 (G) in E6SM cells. The class given is functional.
The nature of assay [3]: Minimum antiviral concentration required to reduce virus-induced cytopathogenicity against TK' HSV-1 (B2006) in E6SM cells. In kind it is functional.
A short description of assay [4]: Minimum antiviral concentration required to reduce virus-induced cytopathogenicity against TK' HSV-1 (VMW 1837) in E6SM cells. The class given is functional.
Assay [5] in a line: Minimum antiviral concentration required to reduce virus-induced cytopathogenicity against Vaccinia virus in E6SM cells. In kind it is functional.
Assay [6] can be described thus: Minimum cytotoxic concentration required to cause alteration of normal E6SM cell culture morphology. In kind it is functional. Conditions: read-out: Min cytotoxic concentration.
Assay [7] deals with HEL. The assay can be described thus: Minimum antiviral concentration required to reduce virus-induced cytopathogenicity against TK' VZV (07/1) in HEL cells. The class given is functional, Homo sapiens.
In assay [8] the test system is HEL. In words: Minimum antiviral concentration required to reduce virus-induced cytopathogenicity against TK' VZV (YS/R) in HEL cells. In kind it is functional, Homo sapiens.
Assay [9] relates to HEL. The assay can be described thus: Minimum antiviral concentration required to reduce virus-induced cytopathogenicity against VZV (OKA) in HEL cells. In kind it is functional, Homo sapiens.
Assay [10] relates to HEL. In words: Minimum antiviral concentration required to reduce virus-induced cytopathogenicity against VZV (YS) in HEL cells. The class given is functional, Homo sapiens.
Assay [11] deals with HEL. The assay can be described thus: Minimum cytotoxic concentration required to cause alteration of normal human […] (HEL) morphology in HEL cells. In kind it is functional. As to conditions: read-out: Min cytotoxic concentration.
Assay [12] is described as follows: Minimum antiviral concentration required to reduce virus-induced cytopathogenicity against TK-HSV-1 (B2006) in E6SM cells. The class given is functional.
The nature of assay [13]: Minimum antiviral concentration required to reduce virus-induced cytopathogenicity against vaccinia virus in E6SM cells. In kind it is functional.
Assay [14] has as its system HEL. The assay can be described thus: Minimum cytotoxic concentration required to cause alteration of normal human […] (HEL) morphology. The class given is functional. As to conditions: read-out: Min cytotoxic concentration.

For `O=c1[nH]c(=O)n([C@H]2C[C@H](O)[C@@H](CO)O2)cc1/C=C/Br` [BRIVUDINE], the Min antiviral concentration was 0.02 µg/mL in [1]; 100 µg/mL in assay [2]; 100 µg/mL in assay [3]; 40 µg/mL in [4]; 0.3 µg/mL in [5]; greater than 10 µg/mL in the assay with HEL [7]. Further, the figures for the Min antiviral concentration in the assay with HEL [8], with HEL [9] and in the assay on HEL [10] were greater than 10 µg/mL, 0.002 µg/mL and 0.004 µg/mL, respectively. For the same molecule, the MCC (in [6]; in the assay with HEL [11]) was 200 µg/mL each time.
Regarding `O=c1[nH]c(=O)n([C@H]2C[C@H](O)[C@@H](CO)O2)cc1C(F)=C(F)F`, the Min antiviral concentration in [1] amounted to 0.05 µg/mL; in assay [2], 13 µg/mL; in [4], 1.5 µg/mL; in assay [12], 13 µg/mL; in assay [13], 8 µg/mL; in the assay on HEL [7], 13.6 µg/mL. Besides, the Min antiviral concentration with HEL [8] came to 11.6 µg/mL; in the assay with HEL [9], 0.16 µg/mL; with HEL [10] it was 0.55 µg/mL. Further, the MCC in [6] came out at 100 µg/mL; in the assay on HEL [14] it was 10 µg/mL.
